# pKi: −log10 of the molar value.
# Molecular target: Protease (Human immunodeficiency virus 1, UniProt Q9YQ12)
# Experiment: Inhibition of HIV1 recombinant protease expressed in Escherichia coli
# Protease, sequence (Q9YQ12 whole entry): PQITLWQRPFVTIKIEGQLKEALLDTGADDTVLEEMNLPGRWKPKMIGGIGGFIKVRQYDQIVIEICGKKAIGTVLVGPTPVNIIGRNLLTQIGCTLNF
row,SMILES,pKi
1,O=[N+]([O-])c1ccc(S(=O)(=O)N(Cc2ccccc2)[C@H]2CNC[C@@H]2N(Cc2ccccc2)S(=O)(=O)c2ccc([N+](=O)[O-])cc2)cc1,5.76
2,Cc1ccccc1S(=O)(=O)N(Cc1ccccc1)[C@H]1CNC[C@@H]1N(Cc1ccccc1)S(=O)(=O)c1ccccc1C,6.17
3,O=S(=O)(c1ccccc1)N(Cc1ccc(Br)cc1)[C@H]1CNC[C@@H]1N(Cc1ccc(Br)cc1)S(=O)(=O)c1ccccc1,6.34
4,C=CCN([C@H]1CNC[C@@H]1N(CC=C)S(=O)(=O)c1ccccc1)S(=O)(=O)c1ccccc1,4.91
5,C=C(C)CN([C@H]1CNC[C@@H]1N(CC(=C)C)S(=O)(=O)c1ccccc1)S(=O)(=O)c1ccccc1,4.13
6,CC(C)=CCN([C@H]1CNC[C@@H]1N(CC=C(C)C)S(=O)(=O)c1ccccc1)S(=O)(=O)c1ccccc1,5.80
7,O=S(=O)(c1ccccc1)N(Cc1ccc(C(F)(F)F)cc1)[C@H]1CNC[C@@H]1N(Cc1ccc(C(F)(F)F)cc1)S(=O)(=O)c1ccccc1,6.10

# Source: ChEMBL document CHEMBL1144712, “Structure-guided design of C2-symmetric HIV-1 protease inhibitors based on a pyrrolidine scaffold” (J Med Chem, 2008)
